These results are taken from a melting point compilation (Tetko et al.; mined from patent text by program, amines drawn as free bases though some values may be those of a salt).

A word on the melting point: it is the temperature of the solid-liquid transition.

SMILES strings stand for the structures.

In turn, `CC1(C)Oc2cc3nc(S)[nH]c3cc2O1` registered a melting point of over 300 °C.
Regarding `C=Cc1cccc2[nH]c(C(=O)O)cc(=O)c12`, the melting point is 265 to 266 °C.
For the compound `CC(=O)c1cccc(NC=O)c1`, the melting point was 100 to 102 °C.
In the case of `Cc1cc(C#N)cc(C)c1OCCCc1ccc(CO)o1`, the melting point lay in the range of 37 to 38 °C.
To `COC(=O)c1cc(C)nc(OC)n1` belongs 101 to 103 °C.
To `COc1ccc(N2CCOCC2)c2sc(-c3nc4c([nH]3)CCN(C(=O)OC(C)(C)C)CC4)nc12` belongs 120 °C; to `CCCCc1ccc2nc(C(=O)OCC)cc(Cl)c2c1`, 54.5 to 56 °C; to `CCOC(=O)c1ccc(NCCCOc2ccc(Cl)cc2)cc1`, 87 to 88 °C.
To `CC(C)Cn1cc(C(=O)O)c2ccc(Cl)cc21` belongs 205 to 206 °C; to `Cc1cccc(Sc2c(O)cc(-c3ccccc3)oc2=O)c1`, 197 to 198 °C; to `CC(Nc1cc(Br)ccc1OCc1ccccc1)c1ccc(C(=O)O)cc1` (centres undefined), 186 to 187 °C.
The compound `CC1(CCS)CN2CCCC(C(=O)O)N2C1=O` (centres undefined) showed a melting point of 119 to 122 °C.
Turning to `COC(=O)C(O[Si](C)(C)C(C)(C)C)c1ccccc1O` (centres undefined), the melting point was 103 to 104 °C.
As for `COC(=O)[C@@H]1C[C@H](C(=O)O)Nc2cc(Cl)ccc21` (relative stereo), the figure is 122 to 124 °C; as for `CN(C)C(=N)Nc1ccccc1-c1cccc(S(C)(=O)=O)c1`, 113 to 114 °C.
To `COC(=O)c1cc(Oc2ccnc(Cl)c2)cc2ccccc12` belongs 103 to 104 °C; to `Cc1ccc2nc(-c3ccccc3)oc2c1`, 93 °C; to `O=c1c2cc(F)c(N3CCCC3)cc2n(-c2cccc(F)c2)c(=O)n1O`, 239 to 241 °C.
As for `CCCCc1ccc(OCCN2CCN(c3cc(Cl)nnc3Cl)CC2)cc1`, the figure is 83 to 84 °C; as for `FC(F)(c1ccccc1)c1nc(-c2ccncc2)cs1`, 54.5 to 55.5 °C.
Compound `CN1CCN(C(=O)Cn2c(-c3cc(Cl)ccn3)nc3cccnc32)CC1` had a melting point of 174 to 175 °C.
To `COCCOc1ccc(N=Nc2cc(S(=O)(=O)N3CCCC3)c(O)c3cccc(NS(C)(=O)=O)c23)cc1S(=O)(=O)Cl` belongs 184 to 187 °C; to `Clc1ncc(-c2ccccc2)cn1`, 130 to 132 °C; to `O=C1C(=Cc2c[nH]c3ccccc23)N(Cc2ccccc2)C(=O)N1Cc1cc(C(F)(F)F)cc(C(F)(F)F)c1`, 154 to 156 °C.
As for `Cc1ccc(S(=O)(=O)Nc2cc(C)cc([N+](=O)[O-])c2N)cc1`, the figure is 184 °C; as for `C=C(C)c1cccc(-n2c(C(F)(F)F)nn(C)c2=S)c1`, 64 to 66 °C; as for `Cc1oc(-c2ccccc2)nc1COc1ccc(CCl)cc1`, 108 to 109 °C.
As for `O=C1CC2(C(=O)N1)C(=O)N(Cc1ccc(Cl)c(Cl)c1)c1ccc(Cl)cc12` (centres undefined), the figure is 268 to 270 °C; as for `NCCc1ccc(-c2csc(N=C(N)N)n2)o1`, 156 to 158 °C.
`COc1ccc(N2CCOCC2)c2sc(C(=O)O)nc12`: the melting point was in the range of 99 to 100 °C.
As for `Cc1cccc(NC(=O)NC(CC(N)=O)C(=O)N(CC(=O)OC(C)(C)C)c2ccccc2)c1` (racemic), the figure is 192 °C.
In turn, `O=CC1Cc2cc(C(=O)c3cccs3)c(Cl)c(Cl)c2O1` (centres undefined) registered a melting point of 162 to 164 °C.
Compound `S=C1Nc2ccccc2N2CCN(Cc3ccccc3)CCN12` yielded a melting point of 125 to 127 °C.
In turn, `CNC(=O)C(Cc1c[nH]c2ccccc12)NC(=O)C(CC(C)C)C(CC(=O)OC)SC(C)=O` (centres undefined) displayed a melting point of 134 to 136 °C.
To `ClCOc1ccc2ccccc2c1` belongs 70 °C.
Take `Clc1ccc2c(c1)C(c1ccccc1)=NCc1nnc(CCOCc3ccccc3)n1-2`: the melting point lay in the range of 115 to 117 °C.
As for `COc1c(F)cc(Br)c(C(=O)O)c1F`, the figure is 92 to 94 °C; as for `CC12CCC(=O)C=C1N(C(C)(C)C)CC1C2CCC2(CC(=O)O)C(C(=O)O)CCC12` (centres undefined), 215 to 216 °C; as for `CCCCc1nn(-c2cc(N)ccc2Cl)c(=O)n1Cc1ccc(-c2cc(CCC)ccc2S(=O)(=O)NC(C)(C)C)cc1F`, 85 to 87 °C.
Consider `CCOC(=O)CCC(O)c1ccc(-c2ccccc2F)cc1` (centres undefined), for which the melting point was 61 to 62 °C.
`O=C(Nc1cccc(-c2ccnc3c(C(=O)c4cccs4)cnn23)c1)OCc1ccccn1` came in with a melting point of 121 to 125 °C.
`CC(=O)c1ccc(S(=O)(=O)Nc2ccc(Cl)cn2)cc1` registered a melting point of 181 to 182 °C.
For `O=C(CCC(F)(F)F)Nc1ccccc1`, the melting point came to 187 °C.
Compound `CON=C1CN(c2c(F)c(N)c3c(=O)c(C(=O)O)cn(C4CC4)c3c2F)CC12CN(C(=O)OC(C)(C)C)C2` returned a melting point of 256 to 257 °C.
In turn, `Cc1cncc(CN2CCC(=C3c4ccc(Cl)cc4CCc4cccnc43)CC2)c1` gave a melting point of 58 to 61 °C.
To `Cc1ccc2c(C=O)c3ccccc3c(C=O)c2c1` belongs 150 to 152 °C.
As for `CCCCn1c(=O)c2cc(C(=O)O)cn2c2ccccc21`, the figure is 212 to 214 °C.
For `Cn1cc(C(=O)O)c(=O)c2c3cc(N4CCC[C@H]4CNc4ccccc4)c(F)cc3ncc21`, the melting point is 250 °C.
To `CN(C)c1ccc2ncnc(Cl)c2c1` belongs 126 to 128 °C; to `Nc1ccc(OCc2ccccc2)cc1C=C(Br)Br`, 67 to 68 °C; to `CC(=O)OC(CF)c1ccccc1S(N)(=O)=O` (centres undefined), 122 to 124 °C.
For the compound `COc1nc(N)nc2c1ncn2C1OC(CO)C(OC(=O)C(C)(C)C)C1O` (centres undefined), the melting point was in the range of 113 to 115 °C.
In turn, `CC(C)(C)c1cc(OCCCc2nnn[nH]2)cc(C(C)(C)C)c1O` returned a melting point of 179 to 180 °C.
As to `CNC1([C@@H]2CCN(c3ccc4c(=O)c(C(=O)O)cn([C@@H]5C[C@@H]5F)c4c3OC)C2)CC1`, the melting point fell in the range of 213 to 215 °C.
As for `COC(=O)c1sccc1S(=O)(=O)NC(=O)Nc1nc(C)cc(OC(F)F)n1`, the figure is 178 to 179 °C; as for `C=C(c1cn(-c2c(Cl)cc(C(F)(F)F)cc2Cl)nc1C#N)C(F)(F)C(F)(F)F`, 107 to 108 °C; as for `CN1CCN(c2ccc(S(=O)(=O)Oc3c(Cl)cc(Cl)cc3Cl)cc2)C1=O`, 185 to 187 °C.
Regarding `CC(C)(C)[Si](OCCOc1ccc(N)cn1)(c1ccccc1)c1ccccc1`, the melting point fell in the range of 59 to 61 °C.
Consider `O=c1ccn(C2C=CC(CO)O2)c(=O)[nH]1` (centres undefined), for which the melting point fell in the range of 150 to 151 °C.
As for `CC(=O)c1ccc(C2C(C(=O)c3ccc(C(C)C)cc3)=C(O)C(=O)N2c2ccc(C)nn2)cc1` (centres undefined), the figure is 259 to 266 °C; as for `CCCCNC(=O)NS(=O)(=O)c1ccccc1S(=O)(=O)OCC(F)(F)F`, 140 to 142 °C.
`CCCC[C@H](NC(=O)[C@H](CC(C)C)NC(=O)c1ccc(F)c(F)c1F)C(=O)CSCc1ccco1` displayed a melting point of 101 to 102 °C.
To `CCCc1cccc(-c2nc(C)cc(Cl)n2)n1` belongs 77.1 °C; to `COc1ccc(C[C@@H](NC(=O)c2ccc(F)c3ccccc23)[C@@H](O)c2ccc(F)cc2)cc1` (racemic), 210 to 211 °C.
